Columns and labels:
[1] = system: Lactobacillus plantarum HG-23; experiment: Antibiotic sensitivity test (microdilution method, MIC); format: cell-based; conditions: cultured for 48 h
Protocol: The antibiotic resistance of HG-23 was detected by a microdilution method. a series of 2-fold dilutions were performed on antibacterial drugs to be tested (Gentamicin, Kanamycin, Tetracycline, Erythromycin, Clindamycin, Chloramphenicol, Amplicilin, with initial concentrations of 1024 ug/ml, 256 ug/ml, 64 ug/ml, 8 ug/ml, 16 ug/ml, 64 ug/ml, 16 ug/ml) for 12 times, then added into corresponding wells of 96-well plates, and then […] diluted test bacterial solutions were added into the corresponding wells. After being cultured for 48 h, the minimum inhibitory concentration (MIC) well of the antibacterial drug, namely the sensitivity of the test strain, was observed.

Lactobacillus plantarum = system: Lactobacillus plantarum; parameters: unit not given here; conditions: regulatory cut-off for Lactobacillus plantarum; cited from earlier work

Gentamicin
minimum inhibitory concentration (MIC) of antibiotic against HG-23 [1]: 8 µg/mL
EFSA specified safety value (Lactobacillus plantarum) (Lactobacillus plantarum): 16
